# Experimental data taken from patent US20080107613A1, “Pharmaceutical composition comprising a macrolide t-cell immunomodulator and anti-photoaging agent” (priority 2004, published 2008).
# What was measured:
# [1] = system: UVB-induced apoptosis in mouse skin; conditions: hairless mice pretreated with 1% pimecrolimus cream or 0.1% tacrolimus ointment; UVB irradiation; versus untreated mice; cited from earlier work
# [2] = system: DNA damage induced by UV light in mouse skin (epidermal thymine dimers); conditions: hairless mice pretreated with 1% pimecrolimus cream or 0.1% tacrolimus ointment; measured one hour after 1 J/cm^2 UVB irradiation; cited from earlier work
# [3] = system: pyrimidine/thymine dimers in DNA extracted from epidermis; test: Thymine dimer levels in human epidermis after simulated solar radiation (immunoslot blot, chemoluminescence image analysis); format: in vivo; conditions: skin sites of subjects with or without atopic dermatitis pretreated with pimecrolimus, 1 hour post-irradiation
# Protocol: Similar results are obtained with skin from subjects receiving pimecrolimus, either with or without skin disease (atopic dermatitis), exposed to simulated solar radiation, when DNA is extracted from epidermis biopsied 1 hour and 24 hours after irradiation, as measured by pyrimidine dimer visualization by immunoslot blot and quantification by chemoluminescence image analysis: at 1 hour post-irradiation thymine dimer levels are clearly lower as compared to untreated control, indicative of reduced dimer production in skin sites pretreated with pimecrolimus.
Molecule,UVB-induced apoptosis [1],decrease of amount of epidermal thymine dimers as compared to untreated mice [2] [%],thymine dimer levels as compared to untreated control [3]
C=CC[C@@H]1/C=C(\C)C[C@H](C)C[C@H](OC)[C@H]2O[C@@](O)(C(=O)C(=O)N3CCCC[C@H]3C(=O)O[C@H](/C(C)=C/[C@@H]3CC[C@@H](O)[C@H](OC)C3)[C@H](C)[C@@H](O)CC1=O)[C@H](C)C[C@@H]2OC [tacrolimus],less pronounced,84,
"{[1E-(1R,3R,4S)]1R,9S,12S, 13R,14S,17R,18E,21S,23S,24R,25S,27R}-12-[2-(4-chloro-3-methoxycyclohexyl)-1-methylvinyl]-17-ethyl-1,14-dihydroxy-23,25-dimethoxy-13,19,21,27-tetramethyl-11,28,dioxa-4-azatricyclo [22.3.1.0(4,9)]octacos-18-ene-2,3,10,16-tetraone [pimecrolimus]",less pronounced,89,clearly lower
